Legend:
RKO/P53wt = assay: MTT assay, RKO/P53wt (parental sensitive); assay type: cell-based; conditions: 72 h, read-out: IC50 determined by MTT assays, RKO/P53wt
From the text: (§1) Cancer cell lines were obtained from either the European Collection of Cell Cultures (ECACC; Salisbury, UK) or the American Type Culture Collection (ATCC; Manassas, VA). The two glioma cell lines were the U373 (ECACC code 08061901) and Hs683 (ATCC HTB-138) cell lines. The carcinoma cell lines were the A549 non-small cell carcinoma cell line (ATCC code CCL 185) and the MCF-7 mammary breast carcinoma cell line (ATCC code HTB-22). The melanoma cell lines were the mouse B16F10 cells (ATCC code CRL-6475) and the human SKMEL-28 cells (ATCC code HTB-72). The ovarian cancer cell line A2780 and its cisplatin-resistant subline A2780cis were obtained from Sigma-Aldrich (St. Louis, MO, USA). Colon cancer HCT116 cells were obtained from ATCC (CCL-247) and the oxaliplatin-resistant subline HCT116/OxR established in the W. Berger lab[59]. The HeLa cell derivative KB-3-1 and the colchicine-selected, highly ABCB1-overexpressing subline KB-C-1 were generously donated by Dr. D. W. Shen, Bethesda, MD. RKOp53wt colon cancer cells together with the RKOp53KO (homozygous knock-out) subline[60] were generously provided by Dr. Vogelstein from John Hopkins University, Baltimore. The correct origin of all cell models was confirmed by STR during performance of the experiments. All cell lines were cultured in RPMI1640 culture medium supplemented with 10% heat-inactivated fetal bovine serum, 2% L-glutamine (0.6 mg/mL), 2% penicillin/streptomycin (200 IU/mL and 200 μg/mL) and 0.1 mg/mL gentamicin.
(§2) The MTT (3-(4,5-dimethylthiazol-2-yl)-2,5-diphenyl tetrazolium bromide) colorimetric assay has been conducted as described previously. Briefly, cells were seeded 24 h before their treatment with each compound for a period of 72 h. The concentrations tested ranged from 10 nM to 100 µM. Each assay was conducted in sextuplicates. The number of independent experiments is mentioned in the legend of the tables.
(§3) SI Table 1: IC50 determined by MTT assays. Mean concentration (± standard deviation) in µM required to
(§4) reduce the viability of cells by 50% after a 72 h treatment relative to the control.
(§5) Parental sensitive models Drug-resistant models

human TopIIa = molecular target: T1, human TopIIa (Homo sapiens, UniProt P11388); assay: Cell-free decatenation assay; assay type: biochemical
T1 construct: purchased TopoGen (Port Orange, FL, USA)
Method: The topoisomerase (Top) activity assay kit, including kinetoplast DNA (kDNA and recombinant human TopIIa enzyme, was obtained from TopoGen (Port Orange, FL, USA), agarose from PeqLab (Erlangen, Germany), 50 × TAE buffer from Roth (Karlsruhe, Germany) and ethidium bromide solution (10 mg/mL) from Sigma-Aldrich (Taufkirchen, Germany). Decatenation assays were performed as described previously[62] with slight modifications according to the manufacturer’s protocol. 100 µM of the recently described dual topoisomerase poison P8-D6 served as a positive control, and 5% DMSO as a solvent control. Briefly, the compounds were dissolved in DMSO and diluted to 20× the concentration to be tested. 1 µL of the resulting stock solutions were mixed with 18 µL of a buffer containing 200 ng kDNA and 1 mM ATP. Subsequently, 1 µL of a 1u/µL dilution of TopIIa enzyme was added and incubated at 37 °C for 30 min. Afterwards, the reaction was stopped by addition of Stop buffer, and electrophoresis was carried out on a 1% agarose gel in TAE buffer. The gel was stained with 0.5 µg/mL ethidium bromide, washed with water, and fluorescence images were captured with the LAS4000 system (Fujifilm, Duesseldorf, Germany). All steps were carried out on ice.

SKMEL-28 = assay: MTT colorimetric assay, SKMEL-28; assay type: cell-based; conditions: Homo sapiens, SK-MEL-28; 72 h treatment; mean ± SEM; resistant to apoptosis; read-out: IC50 determined by MTT assays, SKMEL-28
From the text: as §1, §2

MCF7 = assay: MTT colorimetric assay, MCF7; assay type: cell-based; conditions: Homo sapiens, 72 h treatment, mean ± SEM, sensitive to apoptosis, read-out: IC50 determined by MTT assays, MCF7
From the text: as §1, §2

RKO/p53ko = assay: MTT assay, RKO/p53ko; assay type: cell-based; conditions: 72 h, read-out: IC50 determined by MTT assays, RKO/p53ko
From the text: as §1, §2, §3, §4, §5

A2780R = assay: MTT assay, A2780R (cisplatin-resistant); assay type: cell-based; conditions: 72 h, read-out: IC50 determined by MTT assays, A2780R
From the text: as §1, §2, §3, §4, §5

B16F10 = assay: MTT colorimetric assay, B16F10; assay type: cell-based; conditions: Mus musculus, B16-F10; 72 h treatment; mean ± SEM; sensitive to apoptosis; read-out: IC50 determined by MTT assays, B16F10
From the text: as §1, §2

KB-C-1 = assay: MTT assay, KB-C-1 (ABCB1-overexpressing); assay type: cell-based; conditions: KBC-1, 72 h, read-out: IC50 determined by MTT assays, KB-C-1
From the text: as §1, §2, §3, §4, §5

A2780 = assay: MTT assay, A2780 (parental sensitive); assay type: cell-based; conditions: Homo sapiens, A2780, 72 h, read-out: IC50 determined by MTT assays, A2780
From the text: as §1, §2, §3, §4, §5

A549 = assay: MTT colorimetric assay, A549; assay type: cell-based; conditions: Homo sapiens, 72 h treatment, mean ± SEM of six replicates of one experiment (1: 7, 13: 6 independent experiments), resistant to apoptosis, read-out: IC50 determined by MTT assays, A549
From the text: as §1, §2

Hct116/OxR = assay: MTT assay, Hct116/OxR (oxaliplatin-resistant); assay type: cell-based; conditions: Homo sapiens, HCT-116, 72 h, read-out: IC50 determined by MTT assays, Hct116/OxR
From the text: as §1, §2, §3, §4, §5

Drug-resistant models = assay: MTT assay, mean of drug-resistant models; assay type: cell-based; conditions: 72 h, read-out: IC50 determined by MTT assays, mean of drug-resistant models
From the text: as §1, §2, §3, §4, §5

Hct116 = assay: MTT assay, Hct116 (parental sensitive); assay type: cell-based; conditions: Homo sapiens, HCT-116, 72 h, read-out: IC50 determined by MTT assays, Hct116
From the text: as §1, §2, §3, §4, §5

U373 = assay: MTT colorimetric assay, U373; assay type: cell-based; conditions: Homo sapiens, U373 MG; 72 h treatment; mean ± SEM; resistant to apoptosis; read-out: IC50 determined by MTT assays, U373
From the text: as §1, §2

Hs683 = assay: MTT colorimetric assay, Hs683; assay type: cell-based; conditions: Homo sapiens, Hs 683; 72 h treatment; mean ± SEM; sensitive to apoptosis; read-out: IC50 determined by MTT assays, Hs683
From the text: as §1, §2

KB-3-1 = assay: MTT assay, KB-3-1 (parental sensitive); assay type: cell-based; conditions: Homo sapiens, KB 3-1, 72 h, read-out: IC50 determined by MTT assays, KB-3-1
From the text: as §1, §2, §3, §4, §5

T1 sequence (P11388 whole entry): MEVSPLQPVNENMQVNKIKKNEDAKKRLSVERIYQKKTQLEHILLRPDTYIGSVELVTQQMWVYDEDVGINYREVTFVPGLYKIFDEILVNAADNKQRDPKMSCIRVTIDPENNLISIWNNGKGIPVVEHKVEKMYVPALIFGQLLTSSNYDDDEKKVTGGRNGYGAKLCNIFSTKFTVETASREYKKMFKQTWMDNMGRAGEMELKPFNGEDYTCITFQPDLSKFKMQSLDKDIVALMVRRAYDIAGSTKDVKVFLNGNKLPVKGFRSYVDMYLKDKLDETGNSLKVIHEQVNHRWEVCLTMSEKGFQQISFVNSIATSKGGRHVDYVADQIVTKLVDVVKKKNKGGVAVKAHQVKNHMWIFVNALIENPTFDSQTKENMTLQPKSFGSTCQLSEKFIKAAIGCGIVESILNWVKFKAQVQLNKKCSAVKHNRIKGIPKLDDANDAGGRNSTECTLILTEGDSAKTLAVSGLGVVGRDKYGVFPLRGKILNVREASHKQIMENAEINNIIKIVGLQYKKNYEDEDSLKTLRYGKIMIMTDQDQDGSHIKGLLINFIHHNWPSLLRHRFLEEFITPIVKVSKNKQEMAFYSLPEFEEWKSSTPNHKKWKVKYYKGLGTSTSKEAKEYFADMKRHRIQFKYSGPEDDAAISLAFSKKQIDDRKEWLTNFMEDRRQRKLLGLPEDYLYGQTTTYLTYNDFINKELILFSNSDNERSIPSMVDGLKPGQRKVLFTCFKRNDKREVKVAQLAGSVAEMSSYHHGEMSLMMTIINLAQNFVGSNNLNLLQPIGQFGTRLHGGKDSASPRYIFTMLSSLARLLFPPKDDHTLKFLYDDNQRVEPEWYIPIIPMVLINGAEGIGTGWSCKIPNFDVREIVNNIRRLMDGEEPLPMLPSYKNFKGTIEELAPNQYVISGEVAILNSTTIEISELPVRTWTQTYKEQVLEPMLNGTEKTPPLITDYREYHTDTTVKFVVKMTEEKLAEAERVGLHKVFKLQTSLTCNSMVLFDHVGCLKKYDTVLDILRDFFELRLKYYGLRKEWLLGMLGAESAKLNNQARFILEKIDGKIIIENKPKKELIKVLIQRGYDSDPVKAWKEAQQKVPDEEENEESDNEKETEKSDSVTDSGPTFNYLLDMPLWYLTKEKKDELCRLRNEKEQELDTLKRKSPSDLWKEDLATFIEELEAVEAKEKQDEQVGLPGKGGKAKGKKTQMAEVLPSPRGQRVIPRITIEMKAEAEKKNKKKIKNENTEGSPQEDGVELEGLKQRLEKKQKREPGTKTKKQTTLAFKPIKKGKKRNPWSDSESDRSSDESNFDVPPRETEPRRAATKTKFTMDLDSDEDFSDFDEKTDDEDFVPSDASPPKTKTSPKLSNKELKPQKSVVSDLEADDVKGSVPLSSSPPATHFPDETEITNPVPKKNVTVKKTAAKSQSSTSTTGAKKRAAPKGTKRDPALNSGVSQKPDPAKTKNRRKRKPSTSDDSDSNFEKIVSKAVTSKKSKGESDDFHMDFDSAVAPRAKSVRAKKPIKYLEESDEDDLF

**Q.** What does the source list for `CC1(C=CCCCc2ccc3ccc4cccc5ccc2c3c45)C=C2C(=O)C3(O)OC(=O)C4(CCCC(C)(C)C34)C2(O)CC1` (stereo not shown) [Compound 13]?
**A.** IC50 (RKO/P53wt): 1100 nM; concentration from which TopIIa inhibition trend was observed (human TopIIa): ≥ 1 µM; concentration significantly different from the solvent control (TopIIa inhibition) (human TopIIa): ≥ 1 µM; IC50 (SKMEL-28): 310 ± 10 nM; IC50 (MCF7): 300 ± 20 nM; IC50 (RKO/p53ko): 1500 ± 50 nM; IC50 (A2780R): 1600 ± 90 nM; IC50 (B16F10): 290 ± 10 nM; IC50 (KB-C-1): 3200 ± 600 nM; IC50 (A2780): 1600 ± 20 nM; IC50 (A549): 380 ± 30 nM; IC50 (Hct116/OxR): 800 ± 50 nM; IC50 (Drug-resistant models): 2000 nM; IC50 (Hct116): 1000 ± 100 nM; IC50 (U373): 570 ± 80 nM; IC50 (Hs683): 350 ± 20 nM; IC50 (KB-3-1): 1900 ± 50 nM

**Q.** Which results are given for `CC1(C=CCCCc2ccc3ccc4cccc5ccc2c3c45)C=C2C(O)C3(O)OC(=O)C4(CCCC(C)(C)C34)C2(O)CC1` (stereo not shown) [Compound 16]?
**A.** IC50 (RKO/P53wt): 5600 ± 200 nM; concentration from which TopIIa inhibition trend was observed (human TopIIa): ≥ 1 µM; IC50 (SKMEL-28): 7240 ± 70 nM; IC50 (MCF7): 5980 ± 190 nM; IC50 (RKO/p53ko): 6900 ± 400 nM; IC50 (A2780R): 8300 ± 300 nM; IC50 (B16F10): 5110 ± 420 nM; IC50 (KB-C-1): 15200 ± 1300 nM; IC50 (A2780): 7700 ± 900 nM; IC50 (A549): 6610 ± 80 nM; IC50 (Hct116/OxR): 6600 ± 1300 nM; IC50 (Drug-resistant models): 9000 nM; IC50 (Hct116): 7100 ± 200 nM; IC50 (U373): 8880 ± 190 nM; IC50 (Hs683): 7340 ± 200 nM; IC50 (KB-3-1): 13800 ± 1400 nM

**Q.** For `C=C[C@]1(C)C=C2C(=O)[C@@]3(O)OC(=O)[C@@]4(CCCC(C)(C)[C@H]34)[C@@]2(O)CC1` [Compound 1, sphaeropsidin A, reference compound], which IC50 (RKO/P53wt) is on record?
**A.** Its IC50 is 1900 ± 300 nM.

**Q.** And the inhibition at 500 µM (human TopIIa; at 500 µM, read-out: TopoIIa inhibition)?
**A.** The inhibition at 500 µM was about 50%.

**Q.** What about the IC50 (SKMEL-28) of the same compound?
**A.** Its IC50 is 2320 ± 150 nM.

**Q.** What about the IC50 (MCF7) of the same compound?
**A.** The IC50 was 2410 ± 350 nM.

**Q.** And the IC50 (RKO/p53ko)?
**A.** The IC50 was 1500 ± 100 nM.

**Q.** What about the IC50 (A2780R) of the same compound?
**A.** The IC50 was 2400 ± 100 nM.

**Q.** What about the IC50 (B16F10) of the same compound?
**A.** Its IC50 is 1550 ± 270 nM.

**Q.** What about the IC50 (KB-C-1) of the same compound?
**A.** Its IC50 is 8100 ± 700 nM.

**Q.** What about the IC50 (A2780) of the same compound?
**A.** Its IC50 is 2400 ± 500 nM.

**Q.** What about the IC50 (A549) of the same compound?
**A.** Its IC50 is 1710 ± 260 nM.

**Q.** What about the IC50 (Hct116/OxR) of the same compound?
**A.** Its IC50 is 1700 ± 400 nM.

**Q.** What about the IC50 (Drug-resistant models) of the same compound?
**A.** The IC50 was 4000 nM.

**Q.** What about the IC50 (Hct116) of the same compound?
**A.** Its IC50 is 3400 ± 500 nM.

**Q.** What about the IC50 (U373) of the same compound?
**A.** Its IC50 is 2130 ± 170 nM.

**Q.** And the IC50 (Hs683)?
**A.** The IC50 was 2310 ± 230 nM.

**Q.** And the IC50 (KB-3-1)?
**A.** Its IC50 is 5400 ± 1000 nM.
